Laboratory results reported in patent US6514912B1, “Use of benzo[C]quinolizine derivatives as plant growth regulators” (Applied Research Systems ARS Holding N.V., priority 1998, dated 2003).

Test system: Arabidopsis Thaliana Columbia (Col 0) seeds
Test: Germination of Arabidopsis seeds in the dark, hypocotyledon length
Format: in vivo
Conditions: 10 days in the dark
Experimental: Batches of 25 seeds of Arabidopsis Thaliana Columbia (Col 0) were made to germinate in a suitable culture medium consisting of 0.5 ×MS at pH 5.7, containing 1% sucrose, 1×Vitamin B5 Gamborg, and 0.8% phyto-agar in the presence of the 1,2,5,6-tetrahydro-(11H)benzo[c]quinolizin-3-one inhibitor at the concentrations of 0, 0.01, 0.1, 1 and 10 micromolar. After two hours of treatment in light, the seeds were covered with three layers of aluminium foil and kept at 21° C. in a growth chamber. After 10 days in the dark, the length of the hypocotyledons was measured. […] A reduction of 50% in the hypocotyledons as compared to the controls was found for the seeds treated with a concentration of 0.1 micromolar of inhibitor.

SMILES: O=C1C=C2CCc3ccccc3N2CC1 [1,2,5,6-tetrahydro-(11H)benzo[c]quinolizin-3-one]
- length of the hypocotyledons versus inhibitor concentration (0.01, 0.1, 1 and 10 micromolar, untreated approximately 15-16 mm): progressively shorter as the concentration of inhibitor used was increased
- reduction in the hypocotyledons as compared to the controls (0.1 micromolar inhibitor in culture medium, 21° C., batches of 25 seeds): 50%
